Source: ChEMBL document CHEMBL4028904, “Discovery of a Novel Series of Tankyrase Inhibitors by a Hybridization Approach” (J Med Chem, 2017)

What was measured:
[1] = target: T1, Poly [ADP-ribose] polymerase tankyrase-2 (Homo sapiens, UniProt Q9H2K2); experiment: Inhibition of human TNKS2 (873 to 1162 residues) assessed as reduction in NAD+ consumption by fluorescence assay
T1 sequence (Q9H2K2 whole entry): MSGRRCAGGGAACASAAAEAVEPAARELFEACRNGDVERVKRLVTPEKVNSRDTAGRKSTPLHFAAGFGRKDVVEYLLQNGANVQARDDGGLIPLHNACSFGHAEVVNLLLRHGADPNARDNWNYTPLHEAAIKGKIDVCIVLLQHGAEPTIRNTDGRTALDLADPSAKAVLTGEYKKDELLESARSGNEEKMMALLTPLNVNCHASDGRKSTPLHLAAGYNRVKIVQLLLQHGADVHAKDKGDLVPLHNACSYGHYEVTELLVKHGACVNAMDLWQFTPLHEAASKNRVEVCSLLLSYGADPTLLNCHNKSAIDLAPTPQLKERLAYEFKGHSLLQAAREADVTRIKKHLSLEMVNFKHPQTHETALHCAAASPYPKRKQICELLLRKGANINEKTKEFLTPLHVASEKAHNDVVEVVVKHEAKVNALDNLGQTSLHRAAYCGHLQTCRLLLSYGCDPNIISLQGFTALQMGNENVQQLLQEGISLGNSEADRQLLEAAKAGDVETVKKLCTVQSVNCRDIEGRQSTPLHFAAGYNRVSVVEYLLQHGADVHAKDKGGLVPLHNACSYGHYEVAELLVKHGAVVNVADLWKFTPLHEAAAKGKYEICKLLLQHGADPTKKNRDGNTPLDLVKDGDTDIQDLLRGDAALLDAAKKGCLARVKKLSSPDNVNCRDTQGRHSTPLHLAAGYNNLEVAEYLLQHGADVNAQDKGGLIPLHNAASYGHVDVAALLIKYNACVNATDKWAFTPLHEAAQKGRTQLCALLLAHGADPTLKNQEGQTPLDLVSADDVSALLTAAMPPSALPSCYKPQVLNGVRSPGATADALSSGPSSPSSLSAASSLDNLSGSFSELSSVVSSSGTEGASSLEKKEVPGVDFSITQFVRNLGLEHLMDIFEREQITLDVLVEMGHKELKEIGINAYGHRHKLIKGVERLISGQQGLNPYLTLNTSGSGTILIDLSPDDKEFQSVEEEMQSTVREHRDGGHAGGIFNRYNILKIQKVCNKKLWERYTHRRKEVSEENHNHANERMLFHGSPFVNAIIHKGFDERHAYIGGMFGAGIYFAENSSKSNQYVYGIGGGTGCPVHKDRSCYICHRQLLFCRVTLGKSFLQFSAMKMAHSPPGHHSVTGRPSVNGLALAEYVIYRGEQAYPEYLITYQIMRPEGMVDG

[2] = target: T1, Poly [ADP-ribose] polymerase tankyrase-2; experiment: Inhibition of TNKS2 (unknown origin) expressed in HEK293 cells assessed as inhibition of Wnt3a-induced Wnt/beta-catenin signaling after 24 hrs by luciferase reporter gene assay; assay type: cell-based
[3] = target: T1, Poly [ADP-ribose] polymerase tankyrase-2; experiment: Inhibition of TNKS2 (unknown origin) transfected in human SW480 cells assessed as inhibition of Wnt3a-induced Wnt/beta-catenin signaling after 48 hrs by ST-luciferase reporter gene assay; assay type: cell-based

N#Cc1ccc2c(c1)[nH]c(=O)n2-c1ccc(-c2nnc(-c3ccncn3)n2-c2ccccc2Cl)cc1
IC50 [1]: 340 nM | IC50 [2]: > 10000 nM

O=c1[nH]c2ccccc2n1[C@H]1CC[C@H](c2nnc(-c3ccncn3)n2-c2ccccc2Cl)CC1
IC50 [1]: 430 nM | IC50 [3]: 1800 nM | IC50 [2]: 1060 nM

O=c1[nH]c2ccccc2n1[C@H]1C[C@H](c2nnc(-c3ccncn3)n2-c2ccccc2Cl)C1
IC50 [1]: 9.8 nM | IC50 [3]: 410 nM | IC50 [2]: 200 nM
